Data taken from ChEMBL document CHEMBL1201862, “PubChem BioAssay data set” (2004).
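48-hour exposure; five concentrations; linearly interpolated endpoints. GI50 = concentration required for 50% inhibition of growth.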 Activity calls are given as the source filed them. Rule as the data show it: active = GI50 up to about 1.1 µM and inactive = higher.

Key:
Experiment in all cases: NCI-60 cell line screen, 48 h
Malme-3M = test system: Malme-3M
SNB-19 = test system: SNB-19
K562 = test system: K562
BT-549 = test system: BT-549
HCT-15 = test system: HCT-15
NCI-H460 = test system: NCI-H460
MDA-MB-435 = test system: MDA-MB-435
OVCAR-8 = test system: OVCAR-8
OVCAR-5 = test system: OVCAR-5
HOP-92 = test system: HOP-92
COLO 205 = test system: COLO 205
MOLT-4 = test system: MOLT-4
OVCAR-4 = test system: OVCAR-4
RXF 393 = test system: RXF 393
786-0 = test system: 786-0
A549 = test system: A549
SK-MEL-5 = test system: SK-MEL-5
HL-60 = test system: HL-60
CCRF-CEM = test system: CCRF-CEM
SR = test system: SR

SMILES | GI50 (Malme-3M) | GI50 (SNB-19) | GI50 (K562) | GI50 (BT-549) | GI50 (HCT-15) [µM] | GI50 (NCI-H460) | GI50 (MDA-MB-435) | GI50 (OVCAR-8) | GI50 (OVCAR-5) | GI50 (HOP-92) | GI50 (COLO 205) | GI50 (MOLT-4) | GI50 (OVCAR-4) | GI50 (RXF 393) | GI50 (786-0) | GI50 (A549) | GI50 (SK-MEL-5) | GI50 (HL-60) | GI50 (CCRF-CEM) | GI50 (SR)
CC(/C=N\NC(=S)N1CCCCC1)=N/NC(=S)N1CCCCC1 | 2.15 µM (inactive) | 2.14 µM (inactive) | 1.12 µM (active) | 3.03 µM (inactive) | 0.42 | 0.358 µM (active) | 2.75 µM (inactive) | 0.551 µM (active) | 2.69 µM (inactive) | 2.38 µM (inactive) | 1.75 µM (inactive) | 0.514 µM (active) | 2.3 µM (inactive) | 2.01 µM (inactive) | 2.03 µM (inactive) | 0.692 µM (active) | 1.23 µM (inactive) | – | – | –
CN1CC2=C(N=C(S)NC2c2ccccc2Cl)/C(=C/c2ccccc2Cl)C1 (stereo not drawn) | 25.9 µM (inactive) | > 100 µM (inactive) | 29 µM (inactive) | – | 64.1 | > 100 µM (inactive) | 28.8 µM (inactive) | 33 µM (inactive) | > 100 µM (inactive) | 3.81 µM (inactive) | 21.8 µM (inactive) | 23 µM (inactive) | 14.3 µM (inactive) | > 100 µM (inactive) | > 100 µM (inactive) | 30.5 µM (inactive) | 12.2 µM (inactive) | 21.8 µM (inactive) | 28.8 µM (inactive) | 17.7 µM (inactive)
O=C(O)CCCc1ccc2c(c1)CC1(C2)Cc2ccc(CCCC(=O)O)cc2C1 | > 100 µM (inactive) | – | > 100 µM (inactive) | – | > 100 | – | > 100 µM (inactive) | > 100 µM (inactive) | > 100 µM (inactive) | > 100 µM (inactive) | > 100 µM (inactive) | > 100 µM (inactive) | > 100 µM (inactive) | > 100 µM (inactive) | > 100 µM (inactive) | > 100 µM (inactive) | 54 µM (inactive) | > 100 µM (inactive) | > 100 µM (inactive) | > 100 µM (inactive)
COc1cc([C@@H]2c3cc4c(cc3[C@@H](c3c(O)cc(O)c5c3O[C@H](c3ccc(O)c(O)c3)[C@@H](O)C5)[C@H]3COC(=O)[C@H]23)OCO4)cc(OC)c1OC | > 100 µM (inactive) | 38.4 µM (inactive) | 9.31 µM (inactive) | > 100 µM (inactive) | 39.2 | 1.87 µM (inactive) | 1.75 µM (inactive) | 44.4 µM (inactive) | 27.2 µM (inactive) | > 100 µM (inactive) | 22.7 µM (inactive) | 30.5 µM (inactive) | 1.8 µM (inactive) | 1.71 µM (inactive) | 24 µM (inactive) | 29.9 µM (inactive) | 17 µM (inactive) | 38.8 µM (inactive) | 50.7 µM (inactive) | –
CCn1c(O)c(C(=O)NC(C)c2ccc([N+](=O)[O-])cc2)c(=O)n(CC)c1=S (stereo not drawn) | – | 1.93 µM (inactive) | 0.951 µM (active) | 2.21 µM (inactive) | 2.58 | 2.41 µM (inactive) | 3.62 µM (inactive) | – | 2.23 µM (inactive) | 2.75 µM (inactive) | 1.81 µM (inactive) | 2.05 µM (inactive) | 1.48 µM (inactive) | 3.11 µM (inactive) | 3.27 µM (inactive) | 1.52 µM (inactive) | 3.13 µM (inactive) | 2.28 µM (inactive) | 1.59 µM (inactive) | –
NCC1Nc2ccccc2[C@@H](O)C1O (stereo partly drawn) | > 100 µM (inactive) | > 100 µM (inactive) | > 100 µM (inactive) | – | > 100 | > 100 µM (inactive) | > 100 µM (inactive) | > 100 µM (inactive) | > 100 µM (inactive) | > 100 µM (inactive) | > 100 µM (inactive) | > 100 µM (inactive) | > 100 µM (inactive) | > 100 µM (inactive) | > 100 µM (inactive) | > 100 µM (inactive) | > 100 µM (inactive) | > 100 µM (inactive) | > 100 µM (inactive) | > 100 µM (inactive)
Cc1ccc2c(O)cc(-c3cc4ccccc4s3)nc2n1 | > 48.1 µM (inactive) | > 100 µM (inactive) | > 100 µM (inactive) | > 100 µM (inactive) | > 70.3 | 50.9 µM (inactive) | > 88.1 µM (inactive) | 30.3 µM (inactive) | > 100 µM (inactive) | – | > 100 µM (inactive) | > 100 µM (inactive) | > 75 µM (inactive) | 33.7 µM (inactive) | > 75.5 µM (inactive) | > 100 µM (inactive) | 74.5 µM (inactive) | > 100 µM (inactive) | > 100 µM (inactive) | –
O=Cc1coc2ccccc2c1=O | 9.68 µM (inactive) | 24.6 µM (inactive) | 19.3 µM (inactive) | 15.6 µM (inactive) | 14.3 | 20.9 µM (inactive) | 18.5 µM (inactive) | 15 µM (inactive) | 23.1 µM (inactive) | – | 16.1 µM (inactive) | 24.9 µM (inactive) | 13.8 µM (inactive) | 18 µM (inactive) | 18.1 µM (inactive) | 25.1 µM (inactive) | 17.8 µM (inactive) | 18.6 µM (inactive) | 18.2 µM (inactive) | –
O=S(=O)(N1CCCCN(S(=O)(=O)C(F)(F)F)CCCN(S(=O)(=O)C(F)(F)F)CCCCN(S(=O)(=O)C(F)(F)F)CCCN(S(=O)(=O)C(F)(F)F)CCCCN(S(=O)(=O)C(F)(F)F)CCCN(S(=O)(=O)C(F)(F)F)CCCCN(S(=O)(=O)C(F)(F)F)CCC1)C(F)(F)F | > 31.6 µM (inactive) | > 31.6 µM (inactive) | > 31.6 µM (inactive) | > 31.6 µM (inactive) | > 31.6 | > 31.6 µM (inactive) | > 31.6 µM (inactive) | > 31.6 µM (inactive) | > 100 µM (inactive) | 11.1 µM (inactive) | > 100 µM (inactive) | > 31.6 µM (inactive) | > 100 µM (inactive) | > 31.6 µM (inactive) | > 100 µM (inactive) | > 31.6 µM (inactive) | > 31.6 µM (inactive) | > 31.6 µM (inactive) | > 31.6 µM (inactive) | –
COC(=O)CCn1cnc2c(SC)ncnc21 | > 100 µM (inactive) | > 100 µM (inactive) | > 100 µM (inactive) | – | – | > 100 µM (inactive) | > 100 µM (inactive) | > 100 µM (inactive) | > 100 µM (inactive) | > 100 µM (inactive) | > 100 µM (inactive) | > 100 µM (inactive) | > 100 µM (inactive) | > 100 µM (inactive) | > 100 µM (inactive) | > 100 µM (inactive) | > 100 µM (inactive) | > 100 µM (inactive) | > 100 µM (inactive) | > 100 µM (inactive)
Oc1ccccc1C1=NOC(c2ccc(C(F)(F)F)cc2)C1 (stereo not drawn) | > 50 µM (inactive) | > 50 µM (inactive) | > 50 µM (inactive) | > 50 µM (inactive) | – | > 50 µM (inactive) | > 50 µM (inactive) | > 50 µM (inactive) | > 50 µM (inactive) | – | > 50 µM (inactive) | > 50 µM (inactive) | > 50 µM (inactive) | > 50 µM (inactive) | > 50 µM (inactive) | > 50 µM (inactive) | > 50 µM (inactive) | > 50 µM (inactive) | > 50 µM (inactive) | –
COC(=O)[C@H](Cc1ccccc1)NP(=O)(O)OCC1OC(n2cc(C)c(=O)[nH]c2=O)CC1N=[N+]=[N-] (stereo partly drawn) | > 100 µM (inactive) | > 100 µM (inactive) | > 100 µM (inactive) | – | > 100 | > 100 µM (inactive) | > 100 µM (inactive) | > 100 µM (inactive) | > 100 µM (inactive) | > 100 µM (inactive) | > 100 µM (inactive) | > 100 µM (inactive) | > 100 µM (inactive) | > 100 µM (inactive) | > 100 µM (inactive) | > 100 µM (inactive) | > 100 µM (inactive) | > 100 µM (inactive) | > 100 µM (inactive) | > 100 µM (inactive)
COc1ccccc1N1CCN(S(=O)(=O)c2ccc(Cl)cc2)C1=N | – | 51.3 µM (inactive) | 61.7 µM (inactive) | > 100 µM (inactive) | 62.4 | 33.4 µM (inactive) | 45.9 µM (inactive) | 63.2 µM (inactive) | 22.4 µM (inactive) | – | 73.6 µM (inactive) | 43 µM (inactive) | 87.9 µM (inactive) | > 100 µM (inactive) | 99.5 µM (inactive) | 34.2 µM (inactive) | 56.2 µM (inactive) | – | – | –
CCSc1nc(=S)n(-c2ccccc2)c(C)c1C(C)=O | > 100 µM (inactive) | > 94.6 µM (inactive) | > 100 µM (inactive) | – | > 100 | > 100 µM (inactive) | > 100 µM (inactive) | > 100 µM (inactive) | > 100 µM (inactive) | > 100 µM (inactive) | > 100 µM (inactive) | > 100 µM (inactive) | > 100 µM (inactive) | > 100 µM (inactive) | > 100 µM (inactive) | > 100 µM (inactive) | > 100 µM (inactive) | > 100 µM (inactive) | > 100 µM (inactive) | > 100 µM (inactive)
COC(=O)N[C@@H]1C[C@H]2CC[C@]1(O[Si](C(C)C)(C(C)C)C(C)C)C(=O)C2 | – | 18.1 µM (inactive) | > 100 µM (inactive) | – | 17.8 | 20.7 µM (inactive) | 17.9 µM (inactive) | 23.1 µM (inactive) | 18.5 µM (inactive) | 17.5 µM (inactive) | 34.6 µM (inactive) | 24.3 µM (inactive) | 14.5 µM (inactive) | – | 17.9 µM (inactive) | 14.3 µM (inactive) | 16.4 µM (inactive) | 16.9 µM (inactive) | 18 µM (inactive) | 6.93 µM (inactive)
